We go through 16 compounds from patent US10759785B2, “Compounds” (ENTERPRISE THERAPEUTICS LIMITED, priority 2016, dated 2020).

Assay type in all cases: in vitro ADME
The nature of series [1]: Microsomal stability (rat microsomes). The note with it: pH 7.4, 1 μM test compound, 0.5 mg/mL protein, 1 mM NADPH, 37° C., read-out: Averages. Mic Half Life Rat. How it is done: (§1) Example 28—Microsomal Stability
(§2) Microsomes (rat and human) were obtained from Bioreclamation. Test compound stock solutions in DMSO (10 mM) were diluted with DMSO to 2 mM. Further dilution was completed to achieve a 100 μM stock (final concentrations; 91.5% Acetonitrile: 8.5% DMSO). Final test compound concentration in incubation was 1 μM (<0.1% DMSO). The following probe substrates were used: verapamil, propranolol, metoprolol and phenacetin (rat) at a final incubation concentration of 1 μM. Assay buffer—Solution 1: 17.4 g potassium phosphate dibasic anhydrous (K2HPO4, 0.1 M) dissolved in 1 L deionised water. Solution 2: 13.6 g potassium phosphate monobasic anhydrous (KH2PO4, 0.1 M) dissolved in 1 L deionised water. Potassium phosphate solutions 1 and 2 were combined to form a pH 7.42 solution at 37° C. pH 7.4 with 2 mM magnesium chloride. NADPH (10 mM)—diluted in deionised water. Frozen microsomes were thawed at 37° C. Microsomes were diluted in assay buffer to achieve a final protein concentration of 0.5 mg/mL and 1 mM NADPH. The following procedure was completed on a Perkin Elmer Janus robotic platform in 96 well format: The microsomal incubation plate was transferred to a heater shaker at 300 rpm and solution heated to 37° C. for 10 min pre-warm. A no co-factor control at 0 and 45 min and one replicates of each test compound was included in every assay. Microsomes were incubated at 37° C., on a shaker set at 300 rpm throughout the assay. At each timepoint (0, 5, 15, 30, 45 min) 50 μL of sample was removed from the 96-well and added to 200 μL of quench solution (acetonitrile containing 0.1% formic acid and imipramine/labetalol, 200 nM). Samples were diluted 1:1 with water using the Janus Robot and analysed by LC-MS/MS.

Series [2] in a line: Hepatic stability (human cryopreserved hepatocytes). The note with it: 1×10^6 cells/mL, 37° C.; for half-life at 1 μM: cryopreserved hepatocytes, pH 7.4, 1 μM test compound, read-out: Averages. Hep Half Life Human; for Averages. Hep Half Life Human: 1 μM test compound. Here is the method: (§3) Example 29—Hepatic Stability
(§4) Cryopreserved hepatocytes (rat and human) were obtained from Bioreclamation. Test compound stock solutions in DMSO (10 mM) were diluted with DMSO to 4 mM. Further dilution was completed to achieve a 100 μM stock (5 μL of 4 mM in 195 μL of 50:50 DMSO:hepatocyte buffer). Final test compound concentration in incubation was 1 μM. The following probe substrates were used: testosterone and carbamazepine at a final incubation concentration of 1 μM. Hepatocyte buffer was prepared (Williams E media containing phenol red and Glutamax™, 15 mM HEPES, warmed to 37° C., pH7.4 with NaOH). Cells were removed from liquid nitrogen, thawed in a waterbath, decanted into 50 mL of pre-warmed Cryopreserved Hepatocyte Recovery Media (LifeTechnologies) and centrifuged. Supernatant fraction was removed, cells were re-suspended in hepatocyte buffer and counted by trypan blue exclusion. Cell viability of >80% was required for all assays. Cells were re-suspended to 1×10^6/mL and 198 μL cell suspension added to each 96-well. 2 μL of 100 μM compound stock solution was added to relevant wells to initiate the incubation. A no cell control and two replicates of each test compound was included in every assay. Cells were incubated at 37° C., on a shaker set at 300 rpm. At each timepoint (0, 15, 30, 45, 60, 90 min) 20 μL of sample was removed from the 96-well and added to 80 μL of quench solution (acetonitrile containing 0.1% formic acid and imipramine/labetalol, 200 nM). Samples were diluted 1:1 with water using the Janus Robot and analysed by LC-MS/MS.

Series [3] can be described thus: Microsomal stability (human microsomes). The note with it: 0.5 mg/mL protein, 1 mM NADPH, 37° C.; for half-life at 1 μM: pH 7.4, 1 μM test compound, read-out: Averages. Mic Half Life Human; for Averages. Mic Half Life Human: 1 μM test compound. Here is the method:
as §1, §2

A short description of series [4]: Hepatic stability (rat cryopreserved hepatocytes). Particulars: pH 7.4, 1 μM test compound, 1×10^6 cells/mL, 37° C., read-out: Averages. Hep Half Life Rat. Here is the method: as §3, §4

Where a name gives a salt, the structure may show the parent alone. Bounds are passed on as bounds.

As usually defined, the half-life is the time needed for the level to fall by half in the phase considered.

On to `CCn1c(CNC(=O)c2nc(Br)cnc2N)[n+](CC)c2ccc(OC)cc21.O=C[O-]` [Example 2, 2-{[(3-amino-6-bromopyrazin-2-yl)formamido]methyl}-1,3-diethyl-6-methoxy-1H-1,3-benzodiazol-3-ium formate], for which the half-life at 1 μM was 3 min in series [1], 90 min in series [2], 58 min in series [3] and 5 min in series [4].
On to `CCn1c(CNC(=O)c2nc(Br)cnc2N)[n+](CCO)c2ccc(OC)cc21.O=C[O-]` [Example 3, 2-{[(3-amino-6-bromopyrazin-2-yl)formamido]methyl}-1-ethyl-3-(2-hydroxyethyl)-6-methoxy-1H-1,3-benzodiazol-3-ium formate], for which the half-life at 1 μM was 4 min in series [1], 89 min in series [3] and 13 min in series [4]. For the same compound, in series [2], the “Averages. Hep Half Life Human” value came to 240 min.
Regarding `CCn1c(CNC(=O)c2nc(Br)cnc2N)[n+](CCOCCOCCO)c2ccc(OC)cc21.O=C[O-]` [Example 4, 2-{[(3-amino-6-bromopyrazin-2-yl)formamido]methyl}-1-ethyl-3-{2-[2-(2-hydroxyethoxy)ethoxy]ethyl}-6-methoxy-1H-1,3-benzodiazol-3-ium formate], the half-life at 1 μM came out at 8 min in series [1], 86 min in series [3] and 16 min in series [4]. The “Averages. Hep Half Life Human” value in series [2] amounted to 240 min.
Regarding `CCn1c(CNC(=O)c2nc(Cl)cnc2N)[n+](C)c2ccc(OC)cc21.[I-]` [Example 5, 2-{[(3-amino-6-chloropyrazin-2-yl)formamido]methyl}-1-ethyl-6-methoxy-3-methyl-1H-1,3-benzodiazol-3-ium iodide], the half-life at 1 μM was 4 min in series [1], 68 min in series [2], 12 min in series [3] and 5 min in series [4].
With `CCn1c(CNC(=O)c2nc(C)cnc2N)[n+](C)c2ccc(OC)cc21.[I-]` [Example 7, 2-{[(3-amino-6-methylpyrazin-2-yl)formamido]methyl}-1-ethyl-6-methoxy-3-methyl-1H-1,3-benzodiazol-3-ium iodide], the half-life at 1 μM was found to be 7 min in series [1], 129 min in series [2], 22 min in series [3] and 16 min in series [4].
In the case of `CCc1cnc(N)c(C(=O)NCc2n(CC)c3cc(OC)ccc3[n+]2C)n1.[I-]` [Example 8, 2-{[(3-amino-6-ethylpyrazin-2-yl)formamido]methyl}-1-ethyl-6-methoxy-3-methyl-1H-1,3-benzodiazol-3-ium iodide], the figures for the half-life at 1 μM in series [1] and in series [3] were 3 min and 23 min, respectively.
Turning to `CCn1c(CNC(=O)c2nc(SC)cnc2N)[n+](C)c2ccc(OC)cc21.[I-]` [Example 9, 2-({[3-amino-6-(methylsulfanyl)pyrazin-2-yl]formamido}methyl)-1-ethyl-6-methoxy-3-methyl-1H-1,3-benzodiazol-3-ium iodide], the half-life at 1 μM was 3 min in series [1] and 5 min in series [3].
Turning to `CCn1c(CNC(=O)c2nc(Br)cnc2N)[n+](C)c2ccc(Cl)cc21.O=CO.O=C[O-]` [Example 11, 2-{[(3-amino-6-bromopyrazin-2-yl)formamido]methyl}-6-chloro-1-ethyl-3-methyl-1H-1,3-benzodiazol-3-ium formic acid formate], the half-life at 1 μM in series [1] is 4 min; in series [4] it was 6 min. In addition, the “Averages. Hep Half Life Human” value in series [2] came to 240 min. For the same compound, the “Averages. Mic Half Life Human” value in series [3] is 138 min.
Take `CCn1c(CNC(=O)c2nc(Br)cnc2N)[n+](C)c2ccc(F)cc21.O=C[O-]` [Example 12, 2-{[(3-amino-6-bromopyrazin-2-yl)formamido]methyl}-1-ethyl-6-fluoro-3-methyl-1H-1,3-benzodiazol-3-ium formate]: the half-life at 1 μM in series [1] came to 4 min; in series [3] it was 111 min.
On to `CCn1c(CNC(=O)c2nc(Br)cnc2N)[n+](C)c2ccc(C(F)(F)F)cc21.[I-]` [Example 13, 2-{[(3-amino-6-bromopyrazin-2-yl)formamido]methyl}-1-ethyl-3-methyl-6-(trifluoromethyl)-1H-1,3-benzodiazol-3-ium iodide], for which the half-life at 1 μM in series [1] was found to be 5 min; in series [4] it was 14 min. In series [2], the “Averages. Hep Half Life Human” value is 240 min. For the same compound, in series [3], the “Averages. Mic Half Life Human” value turned out to be 138 min.
Take `CCn1c(CNC(=O)c2nc(Br)cnc2N)[n+](C)c2ccc(OC(F)(F)F)cc21.O=C[O-]` [Example 14, 2-{[(3-amino-6-bromopyrazin-2-yl)formamido]methyl}-1-ethyl-3-methyl-6-(trifluoromethoxy)-1H-1,3-benzodiazol-3-ium formate]: the half-life at 1 μM was found to be 11 min in series [1], 205 min in series [2] and 28 min in series [4]. Besides, the “Averages. Mic Half Life Human” value in series [3] came to 138 min.
In the same order, the values of `CCn1c(CNC(=O)c2nc(Br)cnc2N)[n+](CC)c2ccc(C(=O)OC)cc21.[I-]` [Example 15, 2-{[(3-amino-6-bromopyrazin-2-yl)formamido]methyl}-1,3-diethyl-6-(methoxycarbonyl)-1H-1,3-benzodiazol-3-ium iodide] are 11 min, 154 min, 14 min and 138 min.
In the case of `CCn1c(CNC(=O)c2nc(Br)cnc2N)[n+](CC)c2ccc(C(=O)N[C@@H]3CCOC3=O)cc21` [Example 17, 2-{[(3-amino-6-bromopyrazin-2-yl)formamido]methyl}-1,3-diethyl-6-{[(3R)-2-oxooxolan-3-yl]carbamoyl}-1H-1,3-benzodiazol-3-ium formate], the half-life at 1 μM came to 29 min in series [1], 101 min in series [2], 135 min in series [3] and 32 min in series [4].
On the same counts, the results for `CCn1c(CNC(=O)c2nc(Br)cnc2N)[n+](CC)c2ccc(C(=O)N[C@H]3CCOC3=O)cc21` [Example 18, 2-{[(3-amino-6-bromopyrazin-2-yl)formamido]methyl}-1,3-diethyl-6-{[(3S)-2-oxooxolan-3-yl]carbamoyl}-1H-1,3-benzodiazol-3-ium formate] are 61 min, 137 min, over 138 min and 46 min.
Regarding `CCn1c(CNC(=O)c2nc(Br)cnc2N)[n+](Cc2ccccc2)c2ccc(C(F)(F)F)cc21.O=C[O-]` [Example 19, 2-{[(3-Amino-6-bromopyrazin-2-yl)formamido]methyl}-3-benzyl-1-ethyl-6-(trifluoromethyl)-1H-1,3-benzodiazol-3-ium formate], the “Averages. Hep Half Life Human” value in series [2] came to 240 min. Also, in series [4], the half-life at 1 μM worked out at 17 min.
Consider `CCn1c(CNC(=O)c2nc(Br)cnc2N)[n+](CC)c2ccc(-c3cnn(C4CCN(C(=O)OC(C)(C)C)CC4)c3)cc21.[I-]` [Example 20, 2-{[(3-amino-6-bromopyrazin-2-yl)formamido]methyl}-6-(1-{1-[(tert-butoxy)carbonyl]piperidin-4-yl}-1H-pyrazol-4-yl)-1,3-diethyl-1H-1,3-benzodiazol-3-ium iodide], for which the half-life at 1 μM in series [1] is 61 min; in series [2] it was 70 min; in series [3], over 138 min; in series [4] it was 20 min.
